From US7326703B2, “(1,10B-Dihydro-2-(aminocarbonyl-phenyl)-5H-pyrazolo[1,5-c][1,3]benzoxazin-5-yl)phenyl methanone derivatives as HIV viral replication inhibitors” (priority 2004, dated 2008)

How the values were obtained:
HIV-1 strain LAI = experiment: Cellular anti-viral assay in MT4-LTR-EGFP cells, wild type HIV-1 strain LAI; assay type: cell-based; conditions: Human immunodeficiency virus 1, 72 h; MT4-LTR-EGFP cells, three days incubation, GFP signal; average EC50 used where more than one run; read-out: Activity class for HIV-1-LAI test
Protocol: (§1) The compounds were tested in a cellular assay using the MT4-LTR-EGFP cells for anti-viral activity. […] The cellular assay was performed according to the following procedure.
(§2) HIV- or mock-infected MT4-LTR-EGFP cells were incubated for three days in the presence of various concentrations of the inhibitor. Upon infection, the GFP reporter is activated by the viral tat protein. At the end of the incubation period, the GFP signal was measured. In the virus control samples (in the absence of any inhibitor) the maximal fluorescent signal was obtained. The inhibitory activity of the compound was monitored on the virus-infected cells and was expressed as EC50 and EC90. These values represent the amount of the compound required to protect 50% and 90%, respectively, of the cells from virus infection. The toxicity of the compound was measured on the mock-infected cells and was expressed as CC50, which represents the concentration of compound required to inhibit the growth of the cells by 50%. The selectivity index (SI) (ratio CC50/EC50) is an indication of the selectivity of the anti-HIV activity of the inhibitor.

HIV-1-MDR = experiment: Cellular anti-viral assay in MT4-LTR-EGFP cells, multi-drug resistant HIV-1 virus; assay type: cell-based; conditions: Human immunodeficiency virus 1, 72 h, read-out: Activity class for HIV-1-MDR test
Protocol: as §1, §2

Row | SMILES | EC50 (HIV-1 strain LAI) [µM] | EC50 (HIV-1-MDR) [µM]
1 | O=C(NC1CCCCC1)c1ccc(C2=NN3C(C(=O)c4ccc(F)cc4)Oc4ccccc4C3C2)cc1 (stereo not drawn) [Compound 1] | 1 to 10 | > 10
2 | O=C(NCC1CCCCC1)c1ccc(C2=NN3C(C(=O)c4ccc(F)cc4)Oc4ccccc4C3C2)cc1 (stereo not drawn) [Compound 2] | > 10 | > 10
3 | CN(C)CCCNC(=O)c1ccc(C2=NN3C(C(=O)c4ccc(F)cc4)Oc4ccccc4C3C2)cc1 (stereo not drawn) [Compound 3] | > 10 | > 10
4 | O=C(NCc1ccccn1)c1ccc(C2=NN3C(C(=O)c4ccc(Br)cc4)Oc4ccccc4C3C2)cc1 (stereo not drawn) [Compound 4] | 1 to 10 | –
5 | COc1ccc(CNC(=O)c2ccc(C3=NN4C(C(=O)c5ccc(Br)cc5)Oc5ccccc5C4C3)cc2)cc1 (stereo not drawn) [Compound 5] | < 1 | > 10
6 | O=C(NC1CCCC1)c1ccc(C2=NN3C(C(=O)c4ccc(Br)cc4)Oc4ccccc4C3C2)cc1 (stereo not drawn) [Compound 6] | < 1 | > 10
7 | O=C(NCCc1ccccn1)c1ccc(C2=NN3C(C(=O)c4ccc(Br)cc4)Oc4ccccc4C3C2)cc1 (stereo not drawn) [Compound 7] | 1 to 10 | > 10
8 | CN1CCN(C(=O)c2ccc(C3=NN4C(C(=O)c5ccc(Br)cc5)Oc5ccccc5C4C3)cc2)CC1 (stereo not drawn) [Compound 8] | – | > 10
9 | CN(C)CCCNC(=O)c1ccc(C2=NN3C(C(=O)c4ccc(Br)cc4)Oc4ccccc4C3C2)cc1 (stereo not drawn) [Compound 9] | < 1 | > 10
10 | O=C(NCc1cccc(F)c1)c1ccc(C2=NN3C(C(=O)c4ccc(F)cc4)Oc4ccccc4C3C2)cc1 (stereo not drawn) [Compound 10] | > 10 | > 10
11 | O=C(c1ccc(F)cc1)C1Oc2ccccc2C2CC(c3ccc(C(=O)N4CCc5ccccc5C4)cc3)=NN12 (stereo not drawn) [Compound 11] | > 10 | > 10
12 | O=C(NCC1CCCO1)c1ccc(C2=NN3C(C(=O)c4ccc(F)cc4)Oc4ccccc4C3C2)cc1 (stereo not drawn) [Compound 12] | 1 to 10 | > 10
13 | CN(C)CCNC(=O)c1ccc(C2=NN3C(C(=O)c4ccc(F)cc4)Oc4ccccc4C3C2)cc1 (stereo not drawn) [Compound 13] | 1 to 10 | > 10
14 | CC(C)(C)OC(=O)N1CCN(C(=O)c2ccc(C3=NN4C(C(=O)c5ccc(F)cc5)Oc5ccccc5C4C3)cc2)CC1 (stereo not drawn) [Compound 14] | > 10 | > 10
15 | O=C(c1ccc(F)cc1)C1Oc2ccccc2C2CC(c3ccc(C(=O)N4CCN(Cc5ccccc5)CC4)cc3)=NN12 (stereo not drawn) [Compound 15] | > 10 | > 10
16 | O=C(NCc1ccccn1)c1ccc(C2=NN3C(C(=O)c4ccc(F)cc4)Oc4ccccc4C3C2)cc1 (stereo not drawn) [Compound 16] | > 10 | > 10
17 | O=C(c1ccc(F)cc1)C1Oc2ccccc2C2CC(c3ccc(C(=O)N4CCCCCC4)cc3)=NN12 (stereo not drawn) [Compound 17] | < 1 | > 10
18 | O=C(NC1CCCC1)c1ccc(C2=NN3C(C(=O)c4ccc(F)cc4)Oc4ccccc4C3C2)cc1 (stereo not drawn) [Compound 18] | < 1 | –
19 | O=C(NCCc1ccccn1)c1ccc(C2=NN3C(C(=O)c4ccc(F)cc4)Oc4ccccc4C3C2)cc1 (stereo not drawn) [Compound 19] | 1 to 10 | > 10
20 | CN(C)CCCN(C)C(=O)c1ccc(C2=NN3C(C(=O)c4ccc(F)cc4)Oc4ccccc4C3C2)cc1 (stereo not drawn) [Compound 20] | 1 to 10 | 1 to 10
21 | COc1ccc(CNC(=O)c2ccc(C3=NN4C(C(=O)c5ccc(F)cc5)Oc5ccccc5C4C3)cc2)cc1 (stereo not drawn) [Compound 21] | > 10 | > 10
22 | CC(C)CC(C)NC(=O)c1ccc(C2=NN3C(C(=O)c4ccc(F)cc4)Oc4ccccc4C3C2)cc1 (stereo not drawn) [Compound 22] | < 1 | > 10
23 | COc1ccccc1CNC(=O)c1ccc(C2=NN3C(C(=O)c4ccc(F)cc4)Oc4ccccc4C3C2)cc1 (stereo not drawn) [Compound 23] | > 10 | > 10

Row | SMILES | EC50 (HIV-1 strain LAI) [µM] | EC50 (HIV-1-MDR) [µM]
24 | COc1cccc(CNC(=O)c2ccc(C3=NN4C(C(=O)c5ccc(F)cc5)Oc5ccccc5C4C3)cc2)c1 (stereo not drawn) [Compound 24] | 1 to 10 | 1 to 10
25 | COc1ccc(OC)c(CNC(=O)c2ccc(C3=NN4C(C(=O)c5ccc(F)cc5)Oc5ccccc5C4C3)cc2)c1 (stereo not drawn) [Compound 25] | 1 to 10 | 1 to 10
26 | COc1ccc(NC(=O)c2ccc(C3=NN4C(C(=O)c5ccc(F)cc5)Oc5ccccc5C4C3)cc2)cc1 (stereo not drawn) [Compound 26] | 1 to 10 | 1 to 10
27 | CN(C)c1ccc(NC(=O)c2ccc(C3=NN4C(C(=O)c5ccc(F)cc5)Oc5ccccc5C4C3)cc2)cc1 (stereo not drawn) [Compound 27] | < 1 | < 1
28 | COc1ccc(N(C)C(=O)c2ccc(C3=NN4C(C(=O)c5ccc(F)cc5)Oc5ccccc5C4C3)cc2)cc1 (stereo not drawn) [Compound 28] | < 1 | < 1
29 | O=C(Nc1cccnc1)c1ccc(C2=NN3C(C(=O)c4ccc(F)cc4)Oc4ccccc4C3C2)cc1 (stereo not drawn) [Compound 29] | 1 to 10 | < 1
30 | O=C(NCc1cccs1)c1ccc(C2=NN3C(C(=O)c4ccc(F)cc4)Oc4ccccc4C3C2)cc1 (stereo not drawn) [Compound 30] | > 10 | > 10
31 | O=C(NCc1ccco1)c1ccc(C2=NN3C(C(=O)c4ccc(F)cc4)Oc4ccccc4C3C2)cc1 (stereo not drawn) [Compound 31] | 1 to 10 | 1 to 10
32 | CCNC(=O)c1ccc(C2=NN3C(C(=O)c4ccc(F)cc4)Oc4ccccc4C3C2)cc1 (stereo not drawn) [Compound 32] | > 10 | 1 to 10
33 | CC(C)NC(=O)c1ccc(C2=NN3C(C(=O)c4ccc(F)cc4)Oc4ccccc4C3C2)cc1 (stereo not drawn) [Compound 33] | < 1 | < 1
34 | CN1CCC(NC(=O)c2ccc(C3=NN4C(C(=O)c5ccc(F)cc5)Oc5ccccc5C4C3)cc2)CC1 (stereo not drawn) [Compound 34] | 1 to 10 | > 10
35 | CN1CCN(C(=O)c2ccc(C3=NN4C(C(=O)c5ccc(F)cc5)Oc5ccccc5C4C3)cc2)CC1 (stereo not drawn) [Compound 35] | < 1 | > 10
36 | CN(C(=O)c1ccc(C2=NN3C(C(=O)c4ccc(F)cc4)Oc4ccccc4C3C2)cc1)C1CCCCC1 (stereo not drawn) [Compound 36] | < 1 | –
37 | C=CCN(C(=O)c1ccc(C2=NN3C(C(=O)c4ccc(F)cc4)Oc4ccccc4C3C2)cc1)C1CCCCC1 (stereo not drawn) [Compound 37] | 1 to 10 | > 10
38 | O=C(NC1CCC1)c1ccc(C2=NN3C(C(=O)c4ccc(F)cc4)Oc4ccccc4C3C2)cc1 (stereo not drawn) [Compound 38] | < 1 | 1 to 10
39 | CN(C)CCN(C)C(=O)c1ccc(C2=NN3C(C(=O)c4ccc(F)cc4)Oc4ccccc4C3C2)cc1 (stereo not drawn) [Compound 39] | < 1 | 1 to 10
40 | O=C(NCCN1CCCC1)c1ccc(C2=NN3C(C(=O)c4ccc(F)cc4)Oc4ccccc4C3C2)cc1 (stereo not drawn) [Compound 40] | 1 to 10 | > 10
41 | CC(C)(C)NCCNC(=O)c1ccc(C2=NN3C(C(=O)c4ccc(F)cc4)Oc4ccccc4C3C2)cc1 (stereo not drawn) [Compound 41] | 1 to 10 | > 10
42 | CCN(CC)CCNC(=O)c1ccc(C2=NN3C(C(=O)c4ccc(F)cc4)Oc4ccccc4C3C2)cc1 (stereo not drawn) [Compound 42] | 1 to 10 | > 10
43 | CN(C)CCN(Cc1ccccc1)C(=O)c1ccc(C2=NN3C(C(=O)c4ccc(F)cc4)Oc4ccccc4C3C2)cc1 (stereo not drawn) [Compound 43] | 1 to 10 | > 10
44 | O=C(NC1CCCC1)c1ccc(C2=NN3C(C(=O)c4ccc(N5CCCCC5)cc4)Oc4ccccc4C3C2)cc1 (stereo not drawn) [Compound 49] | > 10 | –
45 | COc1ccc(C(=O)C2Oc3ccccc3C3CC(c4ccc(C(=O)NC5CCCC5)cc4)=NN23)cc1 (stereo not drawn) [Compound 51] | – | < 1
